In ChEMBL document CHEMBL1165930, “The anticancer activity of 3- and 10-bromofascaplysins is mediated by caspase-8, -9, -3-dependent apoptosis” (Bioorg Med Chem, 2010):
pIC50: −log10 of the molar value. Calls of active or inactive are those of the source. The rule behind the calls is not given here.

How the values were obtained:
[1] = Inhibition of EGF-stimulated viability of mouse JB6 Cl41 cells after 22 hrs by MTS assay; type: functional, cell-based; settings: JB6 Cl41, 22 h
HL-60 [2] = test: Cytotoxicity against human HL60 cells after 22 hrs by MTS assay; type: functional, cell-based; settings: HL-60, 22 h
THP-1 = test: Cytotoxicity against human THP1 cells after 22 hrs by MTS assay; type: functional, cell-based; settings: THP-1, 22 h
HeLa = test: Cytotoxicity against human HeLa cells after 22 hrs by MTS assay; type: functional, cell-based
MDA-MB-231 = test: Cytotoxicity against human MDA-MB-231 cells after 22 hrs by MTS assay; type: functional, cell-based; settings: MDA-MB-231, 22 h
DLD-1 = test: Cytotoxicity against human DLD1 cells after 22 hrs by MTS assay; type: functional, cell-based; settings: DLD-1, 22 h
[3] = Cytotoxicity against human SNUC4 cells after 22 hrs by MTS assay; type: functional, cell-based; settings: SNU-C4, 22 h
SK-MEL-28 = test: Cytotoxicity against human SK-MEL-28 cells after 22 hrs by MTS assay; type: functional, cell-based; settings: SK-MEL-28, 22 h
HL-60 [4] = test: Induction of apoptosis in human HL60 cells assessed as total apoptotic cells at 50 to 100 nM after 24 hrs by FITC-conjugated annexin V and propidium iodide staining-based flow cytometry; type: functional
HL-60 [5] = test: Induction of apoptosis in human HL60 cells assessed as total apoptotic cells at 1000 nM after 24 hrs by FITC-conjugated annexin V and propidium iodide staining-based flow cytometry; type: functional
HL-60 [6] = test: Induction of apoptosis in human HL60 cells assessed as early apoptotic cells at 50 nM after 24 hrs by FITC-conjugated annexin V and propidium iodide staining-based flow cytometry; type: functional
HL-60 [7] = test: Induction of apoptosis in human HL60 cells assessed as early apoptotic cells at 250 nM after 24 hrs by FITC-conjugated annexin V and propidium iodide staining-based flow cytometry; type: functional
HL-60 [8] = test: Induction of apoptosis in human HL60 cells assessed as early apoptotic cells at 500 to 1000 nM after 24 hrs by FITC-conjugated annexin V and propidium iodide staining-based flow cytometry; type: functional
HL-60 [9] = test: Induction of apoptosis in human HL60 cells assessed as decrease in procaspase-8 level at 500 nM after 24 hrs by Western blot analysis; type: functional, cell-based
HL-60 [10] = test: Induction of apoptosis in human HL60 cells assessed as decrease in procaspase-9 level at 500 nM after 24 hrs by Western blot analysis; type: functional, cell-based
HL-60 [11] = test: Induction of apoptosis in human HL60 cells assessed as decrease in procaspase-3 level at 500 nM after 24 hrs by Western blot analysis; type: functional, cell-based
HL-60 [12] = test: Induction of apoptosis in human HL60 cells assessed as decrease in Bid protein level at 500 nM after 24 hrs by Western blot analysis; type: functional, cell-based
HL-60 [13] = test: Induction of apoptosis in human HL60 cells assessed as decrease in PARP level at 250 nM after 24 hrs by Western blot analysis; type: functional, cell-based
HL-60 [14] = test: Induction of apoptosis in human HL60 cells assessed as decrease in PARP level at 500 nM after 24 hrs by Western blot analysis; type: functional, cell-based
HL-60 [15] = test: Induction of apoptosis in human HL60 cells assessed as change in mitochondrial permeability at 250 nM after 24 hrs by DiOC6 staining-based flow cytometry (RVB = 90.3%); type: functional

O=C1c2ccccc2-[n+]2ccc3c([nH]c4cc(Br)ccc43)c21.[Cl-]
pIC50 [1]: 6.84 | pIC50 (HL-60 [2]): 6.85 | pIC50 (THP-1): 6.79 | pIC50 (HeLa): 7.07 | pIC50 (MDA-MB-231): 6.76 | pIC50 (DLD-1): 6.93 | pIC50 [3]: 6.90 | pIC50 (SK-MEL-28): < 6.00 | Activity (HL-60 [4]): 20% | Activity (HL-60 [5]): 90% | Activity (HL-60 [6]): 5% | Activity (HL-60 [7]): 40% | Activity (HL-60 [8]): 20% | inhibition (HL-60 [9]): Active | inhibition (HL-60 [10]): Active | inhibition (HL-60 [11]): Active | inhibition (HL-60 [12]): Active | inhibition (HL-60 [13]): Active | inhibition (HL-60 [14]): Active | Activity (HL-60 [15]): 60.1%
